The values that follow come from US20230277484A1, “COMPOSITIONS AND METHODS TO PROMOTE BRAIN HEALTH” (Guardian Biosciences, LLC, priority 2022, published 2023).

As usually defined, the EC50 is the concentration that produces a half-maximal response.

The conditions of series [1]: mouse, in vivo. As to the method:
1. The purpose of this study is to determine tissue levels of a test article after dosing in mice.
3. Test system • Number of animals: 39 • Species/strain or breed: C57BL/6J • Age/Wt. at Arrival: 7 weeks • Sex: Female
On study day 0 animals were randomized into treatment groups based on body weight. Following enrollment, treatment was initiated and continued as indicated below. Body weights were recorded following enrollment. Sample collection time points are outlined below On study day 1, animals were necropsied as specified in Section 6.6 below.
7.6 Necropsy information • Method of euthanasia: bleed to exsanguinate followed by cervical dislocation. • Time points: N=3 at each time point; 0 (vehicle); 10 min; 30 min; 1, 2, 3 and 4h
Terminal blood samples were collected via cardiac blood draw and processed for plasma (K2 EDTA, 300-400 uL/animal. Plasma samples were stored at −80 C for shipment on dry ice for bioanalysis. From each animal, the entire brain was collected, flash frozen, and stored at −80 C for shipment on dry ice to bioanalysis.
A study was performed to collect plasma for pharmacokinetic monitoring after a single dose of R-(−)-3-hydroxybutyric acid sodium salt (“BHB”) or R-3′-hydroxybutyl (R)-3′-hydroxybutyrate (“BHB ester”) in female C57BL/6 mice. […]

The test system of a further series is weight drop model of TBI. The experiment in a line: Beam-walk behavioral assay in the weight drop model of TBI. The class given is in vivo, C57BL/6J female mice. The text has this: Test System. • Number of animals: 120 (100+20 extra for TBI deaths0 • Species/Strain or Breed: C57BL/6J • Vendor: Jackson Labs • Age/Wt at Arrival: 11 weeks at arrival • Gender: Female • Age/Wt at Study Initiation: 12 weeks • Acclimation: 7 days • Housing: 3-4 animals/cage
Study Design. Animals will arrive in the facility and will have access to food and water ad libitum. On study day 0, animals will be randomized based on bodyweight. Animals will be briefly anesthetized with isoflurane and subjected to traumatic brain injury (TBI) or sham injury as listed under Injury Induction. Animals will be weighed and undergo behavior testing (Beam Walking) and necropsied according to the Necropsy section.
They will then be placed individually in the prone position in a foam bed with their heads directly under a Plexiglas tube. A brass weight (80 g) will be dropped once through the tube from a specific height (0.8 m) and will strike the head directly creating a midline impact injury. Animals will be monitored for the presence of the forearm fencing response as a sign of moderate TBI. Animals will be placed in a clean cage on a heating pad for recovery, and righting reflex recovery times will be recorded for all animals. Sham animals will undergo all the same procedures but will not be subjected to TBI. Animals will be given 0.1 mg/kg SC buprenorphine directly after TBI to reduce acute pain associated with the injury and directly after sham procedures for the purpose of experimental matching. Animals will be checked daily, per the IACUC-approved post-operative monitoring plan.
Behavioral assay—Beam Walking (Luong, T N et al. Assessment of motor balance and coordination in mice using the balance beam.” J. Vis. Exp. (2011) 49: 2376) Fine motor coordination and balance can be assessed by the beam walking assay, which is a popular test for analyzing mice's gait in an environment that challenges their ability to balance themselves. The goal of this test is for the mouse to stay upright and walk across an elevated narrow beam to a safe platform. Performance on the beam is quantified by measuring the time it takes for the mouse to traverse the beam and the number of paw slips that occur in the process. This task is particularly useful for detecting subtle deficits in motor skills and balance that may not be detected by other motor tests, such as the Rotarod.
This test takes place over 3 consecutive days: 2 days of training and 1 day of testing. On training days, each mouse crosses the 12 mm beam 3 times and then the 6 mm beam 3 times. […] Mice are placed at one end of a beam and the time required to cross to the escape box at the other end (80 cm away) is measured by the motion detectors. […]
On the test day, times to cross each beam are recorded. […]

Series [2] deals with Neurofilament Light (NfL) Chain. The experiment in a line: Neurofilament light chain in plasma after TBI. The class given is in vivo, C57BL/6J female mice. To be noted: preliminary, data not shown. As to the method:
Plasma collection method: Centrifuge plasma samples (EDTA tubes) at 2200×g (not RPM) for 15 minutes at room temperature. Observe separation of blood cells and plasma, with plasma layer on top. Draw off only the plasma layer and take care not to disturb buffy coat when aliquoting by leaving some plasma behind and avoiding the cell layer. Aliquot samples immediately into appropriately labeled tubes and then place them in a −80° C. freezer. […] [table]

Series [3] concerns IL-1β, IL-6, IL-10, TNF-α. The experiment in a line: Luminex Mouse Inflammatory Panel in cortex after TBI. It counts as in vivo, C57BL/6J female mice. As to the method: Sacrifice Schedule: • a. Day 0—animals 1-5, all groups, 4h post TBI • b. Day 1—animals 6-10, all groups, 24 h post-TBI • c. Day 14—animals 11-20, all groups, 14d post TBI
Luminex Mouse Inflammatory Panel. FIG. 9A-FIG. 9C show pg/pg total protein of IL-1β (FIG. 9A), IL-6 (FIG. 9B) and IL-10 (FIG. 9C) expressed in the cortex in each study group from FIG. 8. […] While IL-10 is generally thought of as an anti-inflammatory cytokine, it also may promote fibrotic processes [Steen, E H et al. Adv. Wound Care (New Rochelle) (2020) 9 (4): 184-98, citing O'Garra, A. et al. Immunol. Rev. ([…]) 223: 114-31]. The data for the pre+post groups are consistent with the behavioral data.

For series [4] the following is noted: citing Newman and Verdin 2017; cited from earlier work.
A further series deals with human HCA2 (Homo sapiens, UniProt Q8TDS4). To be noted: citing Taggart et al. 2005; read-out: EC50 for activation of human HCA2; cited from earlier work.
Chain of human HCA2 (Q8TDS4 whole entry): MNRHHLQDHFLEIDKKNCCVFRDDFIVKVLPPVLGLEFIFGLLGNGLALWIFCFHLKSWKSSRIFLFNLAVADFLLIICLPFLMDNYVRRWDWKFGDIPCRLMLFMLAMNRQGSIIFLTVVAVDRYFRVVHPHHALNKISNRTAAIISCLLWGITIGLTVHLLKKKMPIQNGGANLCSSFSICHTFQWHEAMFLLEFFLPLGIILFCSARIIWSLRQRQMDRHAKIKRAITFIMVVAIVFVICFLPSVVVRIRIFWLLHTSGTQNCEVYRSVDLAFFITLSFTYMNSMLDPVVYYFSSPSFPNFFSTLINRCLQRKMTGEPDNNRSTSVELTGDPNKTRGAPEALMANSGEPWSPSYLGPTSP

`C[C@@H](O)CC(=O)[O-].[Na+]` [BHB salt, R-(−)-3-hydroxybutyric acid sodium salt]: the “plasma levels relative to brain levels” value in series [1] is recorded as “approximately ten fold”. For the same compound, the “improvement in foot faults” value in the series with weight drop model of TBI (2× pre+post group, 1 day after TBI, IN daily) came to 70%. The “foot faults after IN delivery after TBI” value in the series with weight drop model of TBI (as soon as day 1 after injury, greatest decrease in post and 2× pre and post groups at day 3) is on record as “decreased foot faults”. For the same compound, in the series on weight drop model of TBI (day 3, best results in post and 2× pre+post groups), the “beam walking at day 3, all treated groups” value was “significantly improved”. For the same compound, the “beam walking, treated groups vs TBI vehicle” value in the series on weight drop model of TBI (pre, post, pre+post and 2× pre+post groups, day 1 and day 3) was “showed improvement in beam walking”. For the same compound, in series [2], the NfL plasma results is “not significant”. Further, in series [3] (24 h and 14 day time points), the “IL-1β expression in cortex” value is “decreased expression”, the “IL-6 expression in cortex” value is “decreased expression” and the “IL-10 expression in cortex” value was “decreased expression”. Moreover, the TNF-α results in series [3] (data not shown) is reported as “not significant”.

Take `C[C@@H](O)CCOC(=O)C[C@@H](C)O` [BHB ester, R-3′-hydroxybutyl (R)-3′-hydroxybutyrate]: in series [1], the “plasma levels relative to brain levels” value was “approximately ten fold”.

As for `CC(O)CC(=O)O` (stereo not drawn) [BHB, beta-hydroxybutyrate], the “solubility in water and blood” value in series [4] was “readily soluble in water and blood”. Also, the EC50 at human HCA2 is roughly 700 µM.
